Laboratory results from patent publication US12077503B2, “Substituted cyclic amides and their use as herbicides” (FMC CORPORATION, priority 2015, dated 2024).

Assays:
Assay type in all cases: in vivo
[1] = system: barnyardgrass (Echinochloa crus-galli); assay: Test C flooded paddy test; details: Flood; for Plant response rating (scale of 0 to 100), Barnyardgrass: 0 is no effect, 100 is complete control
How it was run: (§1)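 Visual 0–100 injury rating versus controls (0 = no effect, 100 = complete control) at 13 to 15 d. 2-leaf-stage plants; pots flooded 3 cm over soil surface, test compound added to paddy water; greenhouse.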

[2] = system: ducksalad (Heteranthera limosa); assay: Test C flooded paddy test; details: Flood; for Plant response rating (scale of 0 to 100), Ducksalad: 0 is no effect, 100 is complete control
How it was run: as §1

[3] = system: sedge, umbrella (small-flower umbrella sedge, Cyperus difformis); assay: Test C flooded paddy test; details: Flood; for Plant response rating (scale of 0 to 100), Sedge, Umbrella: 0 is no effect, 100 is complete control
How it was run: as §1

[4] = system: barnyardgrass (Echinochloa crus-galli); assay: Test G Post-Emergence Protocol; details: Echinochloa crus-galli, post-emergence, 312 h; for pest or weed control at 15.625 g/ha: 15.625 g ai/ha, evaluated after 13 days (100=total damage to plant; 0=no damage to plant), read-out: Barnyardgrass damage rating; for pest or weed control at 62.5 g/ha: 62.5 g ai/ha, read-out: Barnyardgrass damage rating (100=total damage to plant; 0=no damage to plant); for pest or weed control at 62.5 g/ha / pest or weed control at 250 g/ha: evaluated after 13 days; for pest or weed control at 250 g/ha: 250 g ai/ha, read-out: damage to plant, Barnyardgrass (100=total damage to plant; 0=no damage to plant)
Experimental: (§2) Seeds of corn (Zea mays), giant foxtail (Setaria faberi), barnyardgrass (Echinochloa crus-galli), ivy-leaved morning glory (Ipomoea hederacea), redroot pigweed (Amaranthus retroflexus) and velvetleaf (Abutilon theophrasti) were sown in standard soil in pots. After cultivation for 8 days under controlled conditions in a glasshouse (at 24/16° C., day/night; 14 hours light; 65% humidity), the plants were sprayed with an aqueous spray solution derived from the formulation of the technical active ingredient in acetone/water (50:50) solution containing 0.5% Tween 20 (polyoxyethylene sorbitan monolaurate, CAS RN 9005-64-5) to give a final dose of 15.625, 62.5 or 250 g/ha of test compound.
(§3) The test plants were then grown on under controlled conditions in a glasshouse (at 24/16° C., day/night; 14 hours light; 65% humidity) and watered twice daily. After 13 days the test was evaluated (100=total damage to plant; 0=no damage to plant). A dash (-) means no test result.

[5] = system: corn (Zea mays); assay: Test G Post-Emergence Protocol; details: Zea mays, post-emergence, 312 h; for plant injury at 15.625 g/ha: 15.625 g ai/ha, evaluated after 13 days (100=total damage to plant; 0=no damage to plant), read-out: Corn damage rating; for plant injury at 62.5 g/ha: 62.5 g ai/ha, read-out: Corn damage rating (100=total damage to plant; 0=no damage to plant); for plant injury at 62.5 g/ha / plant injury at 250 g/ha: evaluated after 13 days; for plant injury at 250 g/ha: 250 g ai/ha, read-out: damage to plant, Corn (100=total damage to plant; 0=no damage to plant)
Experimental: as §2, §3

[6] = system: ivy-leaved morning glory (Ipomoea hederacea); assay: Test G Post-Emergence Protocol; details: Ipomoea, post-emergence, 312 h; for pest or weed control at 15.625 g/ha: 15.625 g ai/ha, evaluated after 13 days (100=total damage to plant; 0=no damage to plant), read-out: Morningglory, Ivy-leaved damage rating; for pest or weed control at 62.5 g/ha: 62.5 g ai/ha, read-out: Morningglory, Ivy-leaved damage rating (100=total damage to plant; 0=no damage to plant); for pest or weed control at 62.5 g/ha / pest or weed control at 250 g/ha: evaluated after 13 days; for pest or weed control at 250 g/ha: 250 g ai/ha, read-out: damage to plant, Morningglory, Ivy-leaved (100=total damage to plant; 0=no damage to plant)
Experimental: as §2, §3

[7] = system: redroot pigweed (Amaranthus retroflexus); assay: Test G Post-Emergence Protocol; details: Amaranthus retroflexus, post-emergence, 312 h; for pest or weed control at 15.625 g/ha: 15.625 g ai/ha, evaluated after 13 days (100=total damage to plant; 0=no damage to plant), read-out: Pigweed, Redroot damage rating; for pest or weed control at 62.5 g/ha: 62.5 g ai/ha, read-out: Pigweed, Redroot damage rating (100=total damage to plant; 0=no damage to plant); for pest or weed control at 62.5 g/ha / pest or weed control at 250 g/ha: evaluated after 13 days; for pest or weed control at 250 g/ha: 250 g ai/ha, read-out: damage to plant, Pigweed, Redroot (100=total damage to plant; 0=no damage to plant)
Experimental: as §2, §3

[8] = system: giant foxtail (Setaria faberi); assay: Test G Post-Emergence Protocol; details: Setaria faberi, post-emergence, 312 h; for pest or weed control at 15.625 g/ha: 15.625 g ai/ha, evaluated after 13 days (100=total damage to plant; 0=no damage to plant), read-out: Foxtail, Giant damage rating; for pest or weed control at 62.5 g/ha: 62.5 g ai/ha, read-out: Foxtail, Giant damage rating (100=total damage to plant; 0=no damage to plant); for pest or weed control at 62.5 g/ha / pest or weed control at 250 g/ha: evaluated after 13 days; for pest or weed control at 250 g/ha: 250 g ai/ha, read-out: damage to plant, Foxtail, Giant (100=total damage to plant; 0=no damage to plant)
Experimental: as §2, §3

[9] = system: velvetleaf (Abutilon theophrasti); assay: Test G Post-Emergence Protocol; details: Abutilon theophrasti, post-emergence, 312 h; for pest or weed control at 15.625 g/ha: 15.625 g ai/ha, evaluated after 13 days (100=total damage to plant; 0=no damage to plant), read-out: Velvetleaf damage rating; for pest or weed control at 62.5 g/ha: 62.5 g ai/ha, read-out: Velvetleaf damage rating (100=total damage to plant; 0=no damage to plant); for pest or weed control at 62.5 g/ha / pest or weed control at 250 g/ha: evaluated after 13 days; for pest or weed control at 250 g/ha: 250 g ai/ha, read-out: damage to plant, Velvetleaf (100=total damage to plant; 0=no damage to plant)
Experimental: as §2, §3

[10] = 31 g ai/ha, scale 0 to 100 (0 no effect, 100 complete control), 13 to 15 d

Q: For `CN1CC(c2cc(F)cc(F)c2)C(C(=O)Nc2cccc(F)c2F)C1=O` (stereo not drawn) [Compound 644], which “Plant response rating, Barnyardgrass” value [1, 10] is on record?
A: The value was 40.

Q: And the “Plant response rating (scale of 0 to 100), Barnyardgrass” value ([1]; 62 g ai/ha)?
A: The value was 60.

Q: And the “Plant response rating (scale of 0 to 100), Barnyardgrass” value ([1]; 125 g ai/ha)?
A: The value was 75.

Q: And the “Plant response rating (scale of 0 to 100), Barnyardgrass” value ([1]; 250 g ai/ha)?
A: Its value is 90.

Q: What about the “Plant response rating, Ducksalad” value [2, 10] of the same compound?
A: The value was 55.

Q: And the “Plant response rating (scale of 0 to 100), Ducksalad” value ([2]; 62 g ai/ha)?
A: The value was 65.

Q: And the “Plant response rating (scale of 0 to 100), Ducksalad” value ([2]; 125 g ai/ha)?
A: The value was 100.

Q: What about the “Plant response rating (scale of 0 to 100), Ducksalad” value ([2]; 250 g ai/ha) of the same compound?
A: Its value is 100.

Q: And the “Plant response rating, Sedge, Umbrella” value [3, 10]?
A: The value was 0.

Q: What about the “Plant response rating (scale of 0 to 100), Sedge, Umbrella” value ([3]; 62 g ai/ha) of the same compound?
A: The value was 0.

Q: What about the “Plant response rating (scale of 0 to 100), Sedge, Umbrella” value ([3]; 125 g ai/ha) of the same compound?
A: Its value is 0.

Q: What about the “Plant response rating (scale of 0 to 100), Sedge, Umbrella” value ([3]; 250 g ai/ha) of the same compound?
A: Its value is 0.

Q: For `CN1C[C@H](c2ccc(C(F)(F)F)cc2)[C@@H](C(=O)Nc2cccnc2F)C1=O` [Compound 1396], which pest or weed control at 15.625 g/ha [4] is on record?
A: Its pest or weed control at 15.625 g/ha is 80%.

Q: And the pest or weed control at 62.5 g/ha [4]?
A: Its pest or weed control at 62.5 g/ha is 80%.

Q: What about the pest or weed control at 250 g/ha [4] of the same compound?
A: Its pest or weed control at 250 g/ha is 80%.

Q: What about the plant injury at 15.625 g/ha [5] of the same compound?
A: The plant injury at 15.625 g/ha was 70%.

Q: What about the plant injury at 62.5 g/ha [5] of the same compound?
A: Its plant injury at 62.5 g/ha is 80%.

Q: What about the plant injury at 250 g/ha [5] of the same compound?
A: The plant injury at 250 g/ha was 70%.

Q: What about the pest or weed control at 15.625 g/ha [6] of the same compound?
A: Its pest or weed control at 15.625 g/ha is 40%.

Q: And the pest or weed control at 62.5 g/ha [6]?
A: The pest or weed control at 62.5 g/ha was 60%.

Q: And the pest or weed control at 250 g/ha [6]?
A: Its pest or weed control at 250 g/ha is 60%.

Q: And the pest or weed control at 15.625 g/ha [7]?
A: Its pest or weed control at 15.625 g/ha is 70%.

Q: What about the pest or weed control at 62.5 g/ha [7] of the same compound?
A: Its pest or weed control at 62.5 g/ha is 70%.

Q: And the pest or weed control at 250 g/ha [7]?
A: Its pest or weed control at 250 g/ha is 80%.

Q: What about the pest or weed control at 15.625 g/ha [8] of the same compound?
A: Its pest or weed control at 15.625 g/ha is 80%.

Q: What about the pest or weed control at 62.5 g/ha [8] of the same compound?
A: Its pest or weed control at 62.5 g/ha is 80%.

Q: And the pest or weed control at 250 g/ha [8]?
A: The pest or weed control at 250 g/ha was 80%.

Q: And the pest or weed control at 15.625 g/ha [9]?
A: The pest or weed control at 15.625 g/ha was 40%.

Q: And the pest or weed control at 62.5 g/ha [9]?
A: Its pest or weed control at 62.5 g/ha is 30%.

Q: What about the pest or weed control at 250 g/ha [9] of the same compound?
A: Its pest or weed control at 250 g/ha is 60%.

Q: Which results are given for `CN1C[C@H](c2ccc(Cl)cc2)[C@@H](C(=O)Nc2cccc(F)n2)C1=O` [Compound 1399]?
A: pest or weed control at 15.625 g/ha [4]: 40%; pest or weed control at 62.5 g/ha [4]: 70%; pest or weed control at 250 g/ha [4]: 80%; plant injury at 15.625 g/ha [5]: 0%; plant injury at 62.5 g/ha [5]: 0%; plant injury at 250 g/ha [5]: 30%; pest or weed control at 15.625 g/ha [6]: 10%; pest or weed control at 62.5 g/ha [6]: 30%; pest or weed control at 250 g/ha [6]: 70%; pest or weed control at 15.625 g/ha [7]: 0%; pest or weed control at 62.5 g/ha [7]: 20%; pest or weed control at 250 g/ha [7]: 60%; pest or weed control at 15.625 g/ha [8]: 60%; pest or weed control at 62.5 g/ha [8]: 80%; pest or weed control at 250 g/ha [8]: 80%; pest or weed control at 15.625 g/ha [9]: 0%; pest or weed control at 62.5 g/ha [9]: 40%; pest or weed control at 250 g/ha [9]: 40%
